The values that follow come from patent US20050079529A1, “Very large scale immobilized polymer synthesis” (Affymetrix, INC., priority 1989, published 2005).

Entries after “also recorded” stand apart in the source; their conditions may differ.

In data set [1] the test system is anti-dynorphin B monoclonal antibody. Kind of data set: Dynorphin B deletion peptide array, relative binding of anti-dynorphin B monoclonal antibody by fluorescence intensity. The following applies: for RELATIVE INTENSITY: mean ± spread over N synthesis sites; for RELATIVE INTENSITY, value in parentheses (ADJUSTED): second value in parentheses.
Procedure: The binding epitope on dynorphin B for the anti-dynorphin B antibody described above was determined by deleting various amino acids and combinations of amino acids from the overall sequence of dynorphin B. The peptides containing these various deletions were prepared on a substrate by the general protection-deprotection methods described above. Then the substrate was exposed to the anti-dynorphin B monoclonal antibody and a fluorescence image was produced as shown in FIG. 33.
From the intensity distribution contained in this plot, it was possible to determine the relative binding affinity to various of the peptides.
The test system of data set [2] is antibody 3E7. Kind of data set: 10-step binary synthesis array of 1,024 peptides, fluorescence scan after antibody 3E7 and fluoresceinated antibody. The format is binding, mouse. The source says: The power of the binary masking strategy can be appreciated by the outcome of a 10-step synthesis that produced 1,024 peptides. The polynomial expression for this 10-step binary synthesis was: (f+Ø)(Y+Ø)(G+Ø)(A+Ø)(G+Ø)(T+Ø)(F+Ø)(L+Ø)(S+Ø)(F+Ø)
Each peptide occupied a 400×400 μm square. A 32×32 peptide array (1,024 peptides, including the null peptide and 10 peptides of l=1, and a limited number of duplicates) was clearly evident in a fluorescence scan following side group deprotection and treatment with the antibody 3E7 and fluoresceinated antibody. Each synthesis site was a 400×400 μm square.
(x=20, y=9). […] The median value of the array was 4,800 counts.
The identity of each peptide in the array could be determined from its x and y coordinates (each range from 0 to 31) and the map of FIG. 29. The chemical units at positions 2, 5, 6, 9, and 10 are specified by the y coordinate and those at positions 1, 3, 4, 7, 8 by the x coordinate. All but one of the peptides was shorter than 10 residues. For example, the peptide at x=12 and y=3 is YGAGF (SEQ ID NO:30; […]).
It is often desirable to deduce a binding affinity of a given peptide from the measured fluorescence intensity. Conceptually, the simplest case is one in which a single peptide binds to a univalent antibody molecule. The fluorescence scan is carried out after the slide is washed with buffer for a defined time. The order of fluorescence intensities is then a measure primarily of the relative dissociation rates of the antibody-peptide complexes. If the on-rate constants are the same (e.g., if they are diffusion-controlled), the order of fluorescence intensities will typically correspond to the order of binding affinities. However, the situation is sometimes more complex because a bivalent primary antibody and a bivalent secondary antibody are used. The density of peptides in a synthesis area corresponded to a mean separation of […], which would allow multivalent antibody-peptide interactions. […] For a more complete analysis of how the present invention can be extended to the binding affinity of an immobilized ligand to a receptor, see U.S. Ser. No. 07/796,947, filed Nov. 22, 1991, and incorporated herein by reference.

Data set [3] is described as follows: Photolysis of N-protected L-phenylalanine in solution. As to conditions: 0.10 mM protected phenylalanine. The format is physicochemical. On the procedure: The photoremovable protecting groups of the present invention are readily removed. For example, the photolysis of N-protected L-phenylalanine in solution having different photoremovable protecting groups was analyzed, and the results are presented in the following table: […]

The test system of data set [4] is antibody 3E7. Kind of data set: 10-step binary synthesis array of 1,024 peptides, fluorescence scan after antibody 3E7 and fluoresceinated antibody. The format is binding, mouse. As to conditions: additional binary syntheses based on peptides on phage leads.
The test system of data set [5] is antibody 3E7. Kind of data set: Fluorescence scan of 50 μm YGGFL/PGGFL checkerboard array probed with antibody 3E7 and fluoresceinated goat anti-mouse antibody. The format is binding. The following applies: 2 μg/ml 3E7; 50 μm checkerboard. How it is done:
FIG. 11 is a flow chart illustrating another example of the invention. Carboxy-activated NVOC-leucine was allowed to react with an aminated substrate. The carboxy activated HOBT ester of leucine and other amino acids used in this synthesis was formed by mixing 0.25 mmol of the NVOC amino protected amino acid with 37 mg HOBT (1-hydroxybenzotriazole), 111 mg BOP (benzotriazolyl-n-oxy-tris (dimethylamino)-phosphoniumhexa-fluorophosphate) and 86 μl DIEA (diisopropylethylamine) in 2.5 ml DMF. The NVOC protecting group was removed by uniform illumination. Carboxy-activated NVOC-phenylalanine was coupled to the exposed amino groups for 2 hours at room temperature, and then washed with DMF and methylene chloride. Two unmasked cycles of photodeprotection and coupling with carboxy-activated NVOC-glycine were carried out. The surface was then illuminated through a chrome on glass 50 μm checkerboard pattern mask. Carboxy-activated Na-tBOC-O-tButyl-L-tyrosine was then added. […]
The array of pentapeptides was probed with a mouse monoclonal antibody directed against β-endorphin. […] The surface was scanned with an epi-fluorescence microscope. […] The height of each spike in this display is linearly proportional to the integrated fluorescence intensity in a 2.5 μm pixel. […] There is little variation in the fluorescence intensity of different YGGFL squares. […]

In data set [6] the test system is Herz antibody. Kind of data set: YGGFL/GGFL checkerboard slide exposed to Herz antibody and goat anti-mouse fluorescein conjugate. The format is binding. As to conditions: 500×500 μm mask. On the procedure: A first antibody, known as the Herz antibody, was applied to the surface of the slide for 45 minutes at 2 μg/ml in a supercocktail (containing 1% BSA and 1% ovalbumin also in this case). A second antibody, goat anti-mouse fluorescein conjugate, was then added at 2 μg/ml in the supercocktail buffer, and allowed to incubate for 2 hours.
Monomer-by-monomer synthesis of YGGFL and GGFL in alternate squares was performed on a slide in a checkerboard pattern and the resulting slide was exposed to the Herz antibody. This experiment and the results thereof are illustrated in FIGS. 13A, 13B, 13C, and 13D.
In FIG. 13A, a slide is shown which is derivatized with t-BOC-aminopropyl-triethoxysilane. The slide was treated with TFA to remove the t-BOC protecting group. t-BOC-6-aminocaproic acid was then coupled onto the aminopropyl groups. The aminocaproic acid serves as a spacer between the aminopropyl group and the peptide to be synthesized. The amino end of the spacer was deprotected and coupled to NVOC-Leucine. The entire slide was then illuminated with 12 mW of 325 nm broadband illumination. The slide was then coupled with NVOC-Phenylalanine and washed. The entire slide was again illuminated, then coupled to NVOC-Glycine and washed. […]
The resulting fluorescence scan is shown in FIG. 13C, and the scale for the fluorescence intensity is again given on the right. […]

Data set [7] relates to antibody 3E7. As to conditions: known from Meo et al., Proc. Natl. Acad. Sci. USA (1983) 80:4084; cited from earlier work.
For data set [8], the system named is Herz antibody. Kind of data set: 50 μm checkerboard of YGGFL and YPGGFL, antibody fluorescence plot. The format is binding, mouse.

As to “R R Q F K V V T: deletion peptide from the dynorphin B sequence (RRQFKVVT)”, the “RELATIVE INTENSITY” value in data set [1] came out at 98.8 ± 0.9.
On to YGAFSF: SEQ ID NO:16, for which the “rank of fluorescence in the 1,024 peptide array” value (from here on “rank of fluorescence”) in data set [2] was “most highly fluorescent”.
With “F L R R Q F K V V T: deletion peptide from the dynorphin B sequence (FLRRQFKVVT)”, in data set [1], the “RELATIVE INTENSITY” value stood at 84.2 ± 28.2 and the “RELATIVE INTENSITY, value in parentheses (ADJUSTED)” value is reported as “(98.3 ± 1.2)”.
On to “K V V T: deletion peptide from the dynorphin B sequence, SEQ ID NO:36 (KVVT)”, for which the “RELATIVE INTENSITY” value in data set [1] stood at 10.7 ± 1.8.
For the compound YGGLS: SEQ ID NO:14, in data set [2], the “rank of fluorescence” value is “most highly fluorescent”.
In the case of `O=C(NC(Cc1ccccc1)C(=O)O)OCc1ccccc1[N+](=O)[O-]` (stereo not shown) [NBOC, reference compound], the figures for the “t1/2 in seconds, photolysis of protected L-Phe-OH” value (shortened to “t1/2 in seconds, photolysis”) in data set [3] (5 mM H2SO4/Dioxane) and in data set [3] (Dioxane) were 26.25 min and 21.47 min, respectively.
On to YGAF: SEQ ID NO:8, for which, in data set [2], the “rank of fluorescence” value is reported as “most highly fluorescent”.
Regarding YGAFLSF, the “rank of fluorescence” value in data set [2] is “most highly fluorescent”.
Same read-out and setting: then YGAFF: SEQ ID NO:13, with “most highly fluorescent”.
Still for that read-out and setting: next, YGALS: SEQ ID NO:9: “most highly fluorescent”.
For the compound “L R R Q F K V V T: deletion peptide from the dynorphin B sequence (LRRQFKVVT)”, the “RELATIVE INTENSITY” value in data set [1] stood at 86.9 ± 13.7.
With “F L R R Q F K V V: deletion peptide from the dynorphin B sequence (FLRRQFKVV)”, in data set [1], the “RELATIVE INTENSITY” value was 37.4 ± 14.6 and the “RELATIVE INTENSITY, value in parentheses (ADJUSTED)” value was “(30.5 ± 5.4)”.
Take YGAFMQ: SEQ ID NO:18: the “fluorescence signal relative to YGGFM” value in data set [4] is on record as “stronger fluorescence signals than does YGGFM”.
On to YGAFLS: SEQ ID NO:4, for which the “rank of fluorescence” value in data set [2] is “brightest element of the array; also recorded: most highly fluorescent”.
Same read-out and setting: then YGGFLS: SEQ ID NO:7, with “most highly fluorescent”.
Turning to “F L R R Q F K: deletion peptide from the dynorphin B sequence (FLRRQFK)”, the “RELATIVE INTENSITY” value in data set [1] worked out at 10.2 ± 2.8.
Consider YGAFS: SEQ ID NO:5, for which, in data set [2], the “rank of fluorescence” value is listed as “most highly fluorescent”.
Regarding YGAFM: SEQ ID NO:19, the “fluorescence signal relative to YGGFM” value in data set [4] is reported as “stronger fluorescence signals than does YGGFM”.
For the compound `CC(OC(=O)NC(Cc1ccccc1)C(=O)O)c1cc2c(cc1[N+](=O)[O-])OCO2` (stereo not shown) [MeNPOC], the “t1/2 in seconds, photolysis” value in data set [3] (5 mM H2SO4/Dioxane) worked out at 0.367 min; in data set [3] (Dioxane) it was 0.317 min.
Regarding YGAFL: SEQ ID NO:6, the “rank of fluorescence” value in data set [2] is “most highly fluorescent”.
In the case of Pro-Gly-Gly-Phe-Leu (PGGFL), the “binding of antibody 3E7 to surface peptide” value in data set [5] was “does not bind”.
For GGFL: tetrapeptide, SEQ ID NO:15, the “recognition by Herz antibody” value in data set [6] was “not recognized”.
Regarding “YGGFM: SEQ ID NO:21, the immunogen used to obtain antibody 3E7”, in data set [7], the “affinity of binding by antibody 3E7” value was “nanomolar affinity”.
In the case of “Q F K V V T: deletion peptide from the dynorphin B sequence (QFKVVT)”, in data set [1], the “RELATIVE INTENSITY” value worked out at 36.2 ± 16.0.
On the same count and under the same terms, then “F L R R Q F: deletion peptide from the dynorphin B sequence (FLRRQF)”, with 8.5 ± 3.4.
On to YGAFLF: SEQ ID NO:12, for which, in data set [2], the “rank of fluorescence” value was “most highly fluorescent”.
Same read-out and setting: next, YGGFS: SEQ ID NO:10: “most highly fluorescent”.
Consider YPGGFL: peptide, SEQ ID NO:3, for which, in data set [8], the “recognition / binding by the antibody” value was “does not bind significantly”.
As to YGAL: SEQ ID NO:11, the “rank of fluorescence” value in data set [2] is given as “most highly fluorescent”.
YGAFQ: SEQ ID NO:20: in data set [4], the “fluorescence signal relative to YGGFM” value was “stronger fluorescence signals than does YGGFM”.
With “F L R R Q F K V: deletion peptide from the dynorphin B sequence (FLRRQFKV)”, in data set [1], the “RELATIVE INTENSITY” value is 13.7 ± 3.0.
For `COc1cc(COC(=O)NC(Cc2ccccc2)C(=O)O)c([N+](=O)[O-])cc1OC` (stereo not shown) [NVOC, reference compound], the figures for the “t1/2 in seconds, photolysis” value in data set [3] (5 mM H2SO4/Dioxane) and in data set [3] (Dioxane) were 1.63 min and 1.83 min, respectively.
